# Reference: patent US20210045385A1, “PYRIDAZINONE-SUBSTITUTED KETOXIMES AS HERBICIDES” (FMC Corporation, priority 2018, published 2021)
# Tests used:
# Type in all cases: in vivo
# [1] = test system: Italian ryegrass (Lolium multiflorum); assay: Test A preemergence, visual plant response rating; details: approx. 10 days
# Outline: (§1)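 Preemergence: seeds in loam/sand blend given directed soil spray of compound in non-phytotoxic solvent with surfactant. Postemergence: plants 2–10 cm, one- to two-leaf stage, sprayed with same formulation. Visual injury rated vs untreated controls after ~10 days in greenhouse, 0 (no effect) to 100 (complete control).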
# kochia (Kochia scoparia) [2] = assay: Test A preemergence, visual plant response rating; details: approx. 10 days
# Outline: as §1
# [3] = test system: pigweed (Amaranthus retroflexus); assay: Test A preemergence, visual plant response rating; details: approx. 10 days
# Outline: as §1
# [4] = test system: ragweed (common ragweed, Ambrosia elatior); assay: Test A preemergence, visual plant response rating; details: approx. 10 days
# Outline: as §1
# [5] = test system: foxtail, green (green foxtail, Setaria viridis); assay: Test A preemergence, visual plant response rating; details: approx. 10 days
# Outline: as §1
# [6] = test system: barnyardgrass (Echinochloa crus-galli); assay: Test A preemergence, visual plant response rating; details: approx. 10 days
# Outline: as §1
# [7] = test system: ducksalad (Heteranhera limosa); assay: Test B flooded paddy test, visual plant response rating; details: 250 g ai/ha, Flood, applied to paddy water, 2-leaf stage, evaluated after 13 to 15 days
# Outline: (§2)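 Flooded-pot treatment: water 3 cm over the soil, chemical delivered into that water, depth unchanged for the duration. Assessed by eye versus controls following 13–15 greenhouse days; plants were at 2 leaves when dosed.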
# rice (Oryza sativa) = assay: as above; details: 250 g ai/ha, Flood, applied to paddy water, 2-leaf stage, evaluated after 13 to 15 days
# Outline: as §2
# [8] = test system: barnyardgrass (Echinochloa crus-galli); assay: as above; details: 250 g ai/ha, Flood, applied to paddy water, 2-leaf stage, evaluated after 13 to 15 days
# Outline: as §2
# [9] = test system: sedge, umbrella (small-flower umbrella sedge, Cyperus difformis); assay: as above; details: 250 g ai/ha, Flood, applied to paddy water, 2-leaf stage, evaluated after 13 to 15 days
# Outline: as §2
# [10] = test system: Italian ryegrass (Lolium multiflorum); assay: Test A postemergence, visual plant response rating; details: for Ryegrass, Italian plant response rating (0 to 100 scale): 500 g ai/ha, postemergence, 0 is no effect, 100 is complete control; for Ryegrass, Italian plant response rating: Postemergence, 125 g ai/ha, 0 to 100 scale (0 no effect, 100 complete control)
# Outline: as §1
# [11] = test system: wheat (Triticum aestivum); assay: Test A postemergence, visual plant response rating; details: for Wheat plant response rating (0 to 100 scale): 500 g ai/ha, postemergence, 0 is no effect, 100 is complete control; for Wheat plant response rating: Postemergence, 125 g ai/ha, 0 to 100 scale (0 no effect, 100 complete control)
# Outline: as §1
# kochia (Kochia scoparia) [12] = assay: Test A postemergence, visual plant response rating; details: for Kochia plant response rating (0 to 100 scale): 500 g ai/ha, postemergence, 0 is no effect, 100 is complete control; for Kochia plant response rating: Postemergence, 125 g ai/ha, 0 to 100 scale (0 no effect, 100 complete control)
# Outline: as §1
# [13] = test system: galium (catchweed bedstraw, Galium aparine); assay: Test A postemergence, visual plant response rating; details: for Galium plant response rating (0 to 100 scale): 500 g ai/ha, postemergence, 0 is no effect, 100 is complete control; for Galium plant response rating: Postemergence, 125 g ai/ha, 0 to 100 scale (0 no effect, 100 complete control)
# Outline: as §1
# [14] = test system: pigweed (Amaranthus retroflexus); assay: Test A postemergence, visual plant response rating; details: for Pigweed plant response rating (0 to 100 scale): 500 g ai/ha, postemergence, 0 is no effect, 100 is complete control; for Pigweed plant response rating: Postemergence, 125 g ai/ha, 0 to 100 scale (0 no effect, 100 complete control)
# Outline: as §1
# [15] = test system: ragweed (common ragweed, Ambrosia elatior); assay: Test A postemergence, visual plant response rating; details: for Ragweed plant response rating (0 to 100 scale): 500 g ai/ha, postemergence, 0 is no effect, 100 is complete control; for Ragweed plant response rating: Postemergence, 125 g ai/ha, 0 to 100 scale (0 no effect, 100 complete control)
# Outline: as §1
# [16] = test system: foxtail, green (green foxtail, Setaria viridis); assay: Test A postemergence, visual plant response rating; details: for Foxtail, Green plant response rating (0 to 100 scale): 500 g ai/ha, postemergence, 0 is no effect, 100 is complete control; for Foxtail, Green plant response rating: Postemergence, 125 g ai/ha, 0 to 100 scale (0 no effect, 100 complete control)
# Outline: as §1
# corn (Zea mays) = assay: Test A postemergence, visual plant response rating; details: for Corn plant response rating (0 to 100 scale): 500 g ai/ha, postemergence, 0 is no effect, 100 is complete control; for Corn plant response rating: Postemergence, 125 g ai/ha, 0 to 100 scale (0 no effect, 100 complete control)
# Outline: as §1
# [17] = test system: barnyardgrass (Echinochloa crus-galli); assay: Test A postemergence, visual plant response rating; details: for Barnyardgrass plant response rating (0 to 100 scale): 500 g ai/ha, postemergence, 0 is no effect, 100 is complete control; for Barnyardgrass plant response rating: Postemergence, 125 g ai/ha, 0 to 100 scale (0 no effect, 100 complete control)
# Outline: as §1
# [18] = test system: blackgrass (Alopecurus myosuroides); assay: Test A postemergence, visual plant response rating; details: for Blackgrass plant response rating (0 to 100 scale): 500 g ai/ha, postemergence, 0 is no effect, 100 is complete control; for Blackgrass plant response rating: Postemergence, 125 g ai/ha, 0 to 100 scale (0 no effect, 100 complete control)
# Outline: as §1
compound,measurement,setting,value
CON=C(c1ccccc1Cl)c1c(O)c(C)nn(C)c1=O (stereo in doubt) [Compound 29],"Ryegrass, Italian plant response rating (0 to 100 scale)",[1]; 125 g ai/ha Preemergence,20
same,"Ryegrass, Italian plant response rating (0 to 100 scale)",[1]; 500 g ai/ha Preemergence,70
same,Kochia plant response rating (0 to 100 scale),kochia (Kochia scoparia) [2]; 125 g ai/ha Preemergence,0
same,Kochia plant response rating (0 to 100 scale),kochia (Kochia scoparia) [2]; 500 g ai/ha Preemergence,10
same,Pigweed plant response rating (0 to 100 scale),[3]; 125 g ai/ha Preemergence,0
same,Pigweed plant response rating (0 to 100 scale),[3]; 500 g ai/ha Preemergence,20
same,Ragweed plant response rating (0 to 100 scale),[4]; 125 g ai/ha Preemergence,30
same,Ragweed plant response rating (0 to 100 scale),[4]; 500 g ai/ha Preemergence,90
same,"Foxtail, Green plant response rating (0 to 100 scale)",[5]; 125 g ai/ha Preemergence,30
same,"Foxtail, Green plant response rating (0 to 100 scale)",[5]; 500 g ai/ha Preemergence,50
same,Barnyardgrass plant response rating (0 to 100 scale),[6]; 125 g ai/ha Preemergence,30
same,Barnyardgrass plant response rating (0 to 100 scale),[6]; 500 g ai/ha Preemergence,50
same,"Plant response rating, Ducksalad (0 to 100 scale, 0 is no effect, 100 is complete control)",[7],0
same,"Plant response rating, Rice (0 to 100 scale, 0 is no effect, 100 is complete control)",rice (Oryza sativa),0
same,"Plant response rating, Barnyardgrass (0 to 100 scale, 0 is no effect, 100 is complete control)",[8],0
same,"Plant response rating, Sedge, Umbrella (0 to 100 scale, 0 is no effect, 100 is complete control)",[9],0
same,"Ryegrass, Italian plant response rating (0 to 100 scale)",[10],90
same,"Ryegrass, Italian plant response rating",[10],30
same,Wheat plant response rating (0 to 100 scale),[11],20
same,Wheat plant response rating,[11],20
same,Kochia plant response rating (0 to 100 scale),kochia (Kochia scoparia) [12],30
same,Kochia plant response rating,kochia (Kochia scoparia) [12],10
same,Galium plant response rating (0 to 100 scale),[13],80
same,Galium plant response rating,[13],70
same,Pigweed plant response rating (0 to 100 scale),[14],50
same,Pigweed plant response rating,[14],40
same,Ragweed plant response rating (0 to 100 scale),[15],70
same,Ragweed plant response rating,[15],60
same,"Foxtail, Green plant response rating (0 to 100 scale)",[16],20
same,"Foxtail, Green plant response rating",[16],0
same,Corn plant response rating (0 to 100 scale),corn (Zea mays),10
same,Corn plant response rating,corn (Zea mays),0
same,Barnyardgrass plant response rating (0 to 100 scale),[17],20
same,Barnyardgrass plant response rating,[17],0
same,Blackgrass plant response rating (0 to 100 scale),[18],70
same,Blackgrass plant response rating,[18],20
CO/N=C(/c1cccc(C)c1C)c1c(O)c(C)nn(C)c1=O [Compound 23],"Ryegrass, Italian plant response rating (0 to 100 scale)",[1]; 125 g ai/ha Preemergence,40
same,"Ryegrass, Italian plant response rating (0 to 100 scale)",[1]; 500 g ai/ha Preemergence,90
same,Kochia plant response rating (0 to 100 scale),kochia (Kochia scoparia) [2]; 125 g ai/ha Preemergence,0
same,Kochia plant response rating (0 to 100 scale),kochia (Kochia scoparia) [2]; 500 g ai/ha Preemergence,20
same,Pigweed plant response rating (0 to 100 scale),[3]; 125 g ai/ha Preemergence,30
same,Pigweed plant response rating (0 to 100 scale),[3]; 500 g ai/ha Preemergence,80
same,Ragweed plant response rating (0 to 100 scale),[4]; 125 g ai/ha Preemergence,60
same,Ragweed plant response rating (0 to 100 scale),[4]; 500 g ai/ha Preemergence,90
same,"Foxtail, Green plant response rating (0 to 100 scale)",[5]; 125 g ai/ha Preemergence,0
same,"Foxtail, Green plant response rating (0 to 100 scale)",[5]; 500 g ai/ha Preemergence,50
same,Barnyardgrass plant response rating (0 to 100 scale),[6]; 125 g ai/ha Preemergence,0
same,Barnyardgrass plant response rating (0 to 100 scale),[6]; 500 g ai/ha Preemergence,20
same,"Plant response rating, Ducksalad (0 to 100 scale, 0 is no effect, 100 is complete control)",[7],0
same,"Plant response rating, Rice (0 to 100 scale, 0 is no effect, 100 is complete control)",rice (Oryza sativa),0
same,"Plant response rating, Barnyardgrass (0 to 100 scale, 0 is no effect, 100 is complete control)",[8],0
same,"Plant response rating, Sedge, Umbrella (0 to 100 scale, 0 is no effect, 100 is complete control)",[9],0
same,"Ryegrass, Italian plant response rating (0 to 100 scale)",[10],50
same,"Ryegrass, Italian plant response rating",[10],30
same,Wheat plant response rating (0 to 100 scale),[11],0
same,Wheat plant response rating,[11],0
same,Kochia plant response rating (0 to 100 scale),kochia (Kochia scoparia) [12],30
same,Kochia plant response rating,kochia (Kochia scoparia) [12],10
same,Galium plant response rating (0 to 100 scale),[13],60
same,Galium plant response rating,[13],50
same,Pigweed plant response rating (0 to 100 scale),[14],80
same,Pigweed plant response rating,[14],20
same,Ragweed plant response rating (0 to 100 scale),[15],50
same,Ragweed plant response rating,[15],40
same,"Foxtail, Green plant response rating (0 to 100 scale)",[16],0
same,"Foxtail, Green plant response rating",[16],0
same,Corn plant response rating (0 to 100 scale),corn (Zea mays),0
same,Corn plant response rating,corn (Zea mays),0
same,Barnyardgrass plant response rating (0 to 100 scale),[17],0
same,Barnyardgrass plant response rating,[17],0
same,Blackgrass plant response rating (0 to 100 scale),[18],50
same,Blackgrass plant response rating,[18],20
CCO/N=C(\c1ccccc1C)c1c(O)c(C)nn(C)c1=O [Compound 14],"Ryegrass, Italian plant response rating (0 to 100 scale)",[1]; 125 g ai/ha Preemergence,20
same,"Ryegrass, Italian plant response rating (0 to 100 scale)",[1]; 500 g ai/ha Preemergence,90
same,Kochia plant response rating (0 to 100 scale),kochia (Kochia scoparia) [2]; 125 g ai/ha Preemergence,0
same,Kochia plant response rating (0 to 100 scale),kochia (Kochia scoparia) [2]; 500 g ai/ha Preemergence,20
same,Pigweed plant response rating (0 to 100 scale),[3]; 125 g ai/ha Preemergence,0
same,Pigweed plant response rating (0 to 100 scale),[3]; 500 g ai/ha Preemergence,50
same,Ragweed plant response rating (0 to 100 scale),[4]; 125 g ai/ha Preemergence,80
same,Ragweed plant response rating (0 to 100 scale),[4]; 500 g ai/ha Preemergence,80
same,"Foxtail, Green plant response rating (0 to 100 scale)",[5]; 125 g ai/ha Preemergence,20
same,"Foxtail, Green plant response rating (0 to 100 scale)",[5]; 500 g ai/ha Preemergence,70
same,Barnyardgrass plant response rating (0 to 100 scale),[6]; 125 g ai/ha Preemergence,40
same,Barnyardgrass plant response rating (0 to 100 scale),[6]; 500 g ai/ha Preemergence,80
same,"Plant response rating, Ducksalad (0 to 100 scale, 0 is no effect, 100 is complete control)",[7],0
same,"Plant response rating, Rice (0 to 100 scale, 0 is no effect, 100 is complete control)",rice (Oryza sativa),0
same,"Plant response rating, Barnyardgrass (0 to 100 scale, 0 is no effect, 100 is complete control)",[8],0
same,"Plant response rating, Sedge, Umbrella (0 to 100 scale, 0 is no effect, 100 is complete control)",[9],0
same,"Ryegrass, Italian plant response rating (0 to 100 scale)",[10],60
same,"Ryegrass, Italian plant response rating",[10],60
same,Wheat plant response rating (0 to 100 scale),[11],0
same,Wheat plant response rating,[11],0
same,Kochia plant response rating (0 to 100 scale),kochia (Kochia scoparia) [12],50
same,Kochia plant response rating,kochia (Kochia scoparia) [12],20
same,Galium plant response rating (0 to 100 scale),[13],90
same,Galium plant response rating,[13],90
same,Pigweed plant response rating (0 to 100 scale),[14],80
same,Pigweed plant response rating,[14],20
same,Ragweed plant response rating (0 to 100 scale),[15],70
same,Ragweed plant response rating,[15],60
same,"Foxtail, Green plant response rating (0 to 100 scale)",[16],40
same,"Foxtail, Green plant response rating",[16],20
same,Corn plant response rating (0 to 100 scale),corn (Zea mays),10
same,Corn plant response rating,corn (Zea mays),0
same,Barnyardgrass plant response rating (0 to 100 scale),[17],40
same,Barnyardgrass plant response rating,[17],20
same,Blackgrass plant response rating (0 to 100 scale),[18],60
same,Blackgrass plant response rating,[18],30
